Laboratory results taken from patent publication US10501482B2, “Compounds for treating spinal muscular atrophy” (Hoffmann-La Roche Inc., priority 2013, dated 2019).
Counter-ions that a name gives are not always drawn.

Legend:
[1] = tested on: full length SMN2 minigene mRNA (FL SMN2mini) in HEK293H cells stably transfected with the SMN2-A minigene construct; assay: SMN2 minigene mRNA splicing RT-qPCR assay in cultured cells; type: cell-based; settings: Homo sapiens, HEK293-H, 24 hours, 7-point concentration curve, concentration giving 1.5-fold FL SMN2mini mRNA vs vehicle, read-out: EC1.5x minigene (EC1.5x concentration for production of full length SMN2 minigene mRNA)
Method: The reverse transcription-quantitative PCR-based (RT-qPCR) assay is used to quantify the level of the full length SMN2 minigene (referred to herein by the term “FL SMN2mini”) mRNA containing SMN2 exon 7 in a HEK293H cell line stably transfected with said minigene and treated with a test compound.
The SMN2-A minigene construct was prepared as described in International Patent Application WO2009/151546A1 page 145 paragraph [00400] to page 147 paragraph [00412](incl. FIG. 1 and FIG. 3 therein).
HEK293H cells stably transfected with the SMN2-A minigene construct (10,000 cells/well) are seeded in 200 μL of cell culture medium (DMEM plus 10% FBS, with 200 μg/mL hygromycin) in 96-well flat-bottom plates and the plate is immediately swirled to ensure proper dispersal of cells and the formation of an even monolayer of cells. Cells are allowed to attach for 6 hours. […] A solution of test compound (1 μL, 200× in DMSO) is added to each cell-containing well and the plate is incubated for 24 hours in a cell culture incubator (37° C., 5% CO2, 100% relative humidity). 2 replicates are prepared for each test compound concentration. The cells are then lysed in the Cells-To-Ct lysis buffer and the lysate is stored at −80° C.
Full length SMN2-A minigene and GAPDH mRNA are quantified using the primers and probes referenced in Table 1. Primer SMN Forward A (SEQ ID NO.1) hybridizes to a nucleotide sequence in exon 7 (nucleotide 22 to nucleotide 40), primer SMN Reverse A (SEQ ID NO.2) hybridizes to a nucleotide sequence in the coding sequence of Firefly luciferase, SMN Probe A (SEQ ID NO.3) hybridizes to a nucleotide sequence in exon 7 (nucleotide 50 to nucleotide 54) and exon 8 (nucleotide 1 to nucleotide 21). The combination of these three oligonucleotides detects only SMN1 or SMN2 minigenes (RT-qPCR) and will not detect endogenous SMN1 or SMN2 genes.
The SMN forward and reverse primers are used at final concentrations of 0.4 μM. The SMN probe is used at a final concentration of 0.15 μM. The GAPDH primers are used at final concentrations of 0.2 μM and the probe at 0.15 μM.
The SMN2-minigene GAPDH mix (15 μL total volume) is prepared by combining 7.5 μL of 2×RT-PCR buffer, 0.4 μL of 25×RT-PCR enzyme mix, 0.75 μL of 20×GAPDH primer-probe mix, 4.0075 μL of water, 2 μL of 10-fold diluted cell lysate, 0.06 μL of 100 μM SMN forward primer, 0.06 μL of 100 μM SMN reverse primer, and 0.225 μL of 100 μM SMN probe.
PCR is carried out at the following temperatures for the indicated time: Step 1: 48° C. (15 min); Step 2: 95° C. (10 min); Step 3: 95° C. (15 sec); Step 4: 60° C. (1 min); then repeat Steps 3 and 4 for a total of 40 cycles.
Each reaction mixture contains both SMN2-A minigene and GAPDH primers/probe sets (multiplex design), allowing simultaneous measurement of the levels of two transcripts.
The increase in the abundance of the FL SMN2mini mRNA relative to that in cells treated with vehicle control is determined from real-time PCR data using a modified ΔΔCt method (as described in Livak and Schmittgen, Methods, 2001, 25:402-8). The amplification efficiency E is calculated from the slope of the amplification curve for FL SMN2mini and GAPDH individually. The abundance of FL SMN2mini and GAPDH mRNA are then calculated as (1+E)^−Ct, where Ct is the threshold value for each amplicon. The abundance of FL SMN2mini mRNA is normalized to GAPDH mRNA abundance. The normalized FL SMN2mini mRNA abundance from test compound-treated samples is then divided by normalized FL SMN2mini mRNA abundance from vehicle-treated cells to determine the level of FL SMN2mini mRNA relative to vehicle control.
Table 2 provides EC1.5x concentrations for production of full length SMN2 minigene mRNA that was obtained from the 7-point concentration data generated according to the above procedure for particular compounds of the present invention.

SMN protein = SMN protein assay (HTRF) in cultured SMA patient fibroblast cells; type: cell-based; settings: SMA Type 1 human fibroblasts GM03813, 48 hours; for EC1.5x SMN protein (EC1.5x concentration for SMN protein expression): 7-point concentration curve, concentration giving 1.5 times SMN protein vs vehicle; for max. fold increase (maximum fold increase of SMN protein): 7-point concentration data, fold vs vehicle control
Method: The SMN HTRF (homogeneous time resolved fluorescence) assay is used to quantify the level of SMN protein in SMA patient fibroblast cells treated with test compounds.
Cells are thawed and cultured in DMEM-10% FBS for 72 hours. Cells are trypsinized, counted and re-suspended to a concentration of 25,000 cells/mL in DMEM-10% FBS. The cell suspensions are plated at 5,000 cells per well in a 96 well microtiter plate and incubated for 3 to 5 hours. […] 1 μL of test compound solution is transferred to cell-containing wells and cells are incubated for 48 hours in a cell culture incubator (37° C., 5% CO2, 100% relative humidity). Triplicate samples are set up for each test compound concentration. After 48 hours, the supernatant is removed from the wells and 25 μL of the RIPA lysis buffer, containing protease inhibitors, is added to the wells and incubated with shaking at room temperature for 1 hour. 25 μL of the diluent is added and then 35 μL of the resulting lysate is transferred to a 384-well plate, where each well contains 5 μL of the antibody solution (1:100 dilution of anti-SMN d2 and anti-SMN kryptate in SMN reconstitution buffer). The plate is centrifuged for 1 minute to bring the solution to the bottom of the wells, then incubated overnight at room temperature. Fluorescence for each well of the plate at 665 nm and 620 nm is measured on an EnVision multilabel plate reader (Perkin-Elmer).
The normalized fluorescence signal is calculated for each sample, Blank and vehicle control well by dividing the signal at 665 nm by the signal at 620 nm. Normalizing the signal accounts for possible fluorescence quenching due to the matrix effect of the lysate. The ΔF value (a measurement of SMN protein abundance as a percent value) for each sample well is calculated by subtracting the normalized average fluorescence for the Blank control wells from the normalized fluorescence for each sample well, then dividing this difference by the normalized average fluorescence for the Blank control wells and multiplying the resulting value by 100. The ΔF value for each sample well represents the SMN protein abundance from test compound-treated samples. The ΔF value for each sample well is divided by the ΔF value for the vehicle control wells to calculate the fold increase in SMN protein abundance relative to the vehicle control. Table 3 provides EC1.5x concentrations for SMN protein expression that was obtained from the 7-point concentration data generated according to the above procedure for particular compounds of the present invention.
Table 4 provides the maximum fold increase of SMN protein that was obtained from the 7-point concentration data generated according to the above procedure for particular compounds of the present invention

Row | Compound | EC (1.5-fold) [1] [µM] | EC1.5x SMN protein (EC1.5x concentration for SMN protein expression) (SMN protein) [µM] | max. fold increase (maximum fold increase of SMN protein) (SMN protein)
1 | Cc1cn2cc(NC(=O)c3ccc(N4CCNC(C)C4)cn3)cc(F)c2n1 (racemic) [Example 43, rac-N-(8-fluoro-2-methylimidazo[1,2-a]pyridin-6-yl)-5-(3-methylpiperazin-1-yl)picolinamide dihydrochloride] | 0.057 | 0.104 | 1.7873
2 | Cc1cn2cc(NC(=O)c3ccc(N4CCNC(C)C4)c(F)c3F)cc(F)c2n1 (racemic) [Example 45, rac-2,3-difluoro-N-(8-fluoro-2-methylimidazo[1,2-a]pyridin-6-yl)-4-(3-methylpiperazin-1-yl)benzamide hydrochloride] | 0.0615 | 0.5147 | 1.6445
3 | Cc1cn2cc(NC(=O)c3cc(F)c(N4CCNC(C)C4)cc3F)cc(F)c2n1 (racemic) [Example 46, rac-2,5-difluoro-N-(8-fluoro-2-methyl-imidazo[1,2-a]-pyridin-6-yl)-4-(3-methylpiperazin-1-yl)benzamide hydrochloride] | 0.0887 | 0.3584 | 1.5572
4 | Cc1cn2cc(NC(=O)c3cnc(N4CCNC(C)C4)c(F)c3)cc(F)c2n1 (racemic) [Example 47, rac-5-fluoro-N-(8-fluoro-2-methyl-imidazo[1,2-a]-pyridin-6-yl)-6-(3-methylpiperazin-1-yl)nicotinamide hydrochloride] | 0.396 | 0.611 | 1.7065
5 | Cc1cn2cc(NC(=O)c3ncc(N4CCNC(C)C4)cc3F)cc(F)c2n1 (racemic) [Example 48, rac-3-fluoro-N-(8-fluoro-2-methyl-imidazo[1,2-a]-pyridin-6-yl)-5-(3-methylpiperazin-1-yl)picolinamide hydrochloride] | 0.0164 | 0.0621 | 1.738
6 | Cc1cn2cc(NC(=O)c3c(F)cc(N4CCNC(C)C4)cc3F)cc(F)c2n1.Cl (racemic) [Example 49, rac-2,6-difluoro-N-(8-fluoro-2-methyl-imidazo[1,2-a]-pyridin-6-yl)-4-(3-methylpiperazin-1-yl)benzamide hydrochloride] | 0.0107 | 0.1733 | 1.658
7 | Cc1cn2cc(NC(=O)c3ccc(N4CCNC(C)C4)cc3F)c(C)cc2n1 (racemic) [Example 52, rac-N-(2,7-dimethyl-imidazo[1,2-a]-pyridin-6-yl)-2-fluoro-4-(3-methyl-piperazin-1-yl)-benzamide dihydrochloride] | 0.04 | 0.1518 | 1.8152
8 | Cc1cn2cc(NC(=O)c3cnc(N4CCNC(C)C4)c(F)c3)cc(Cl)c2n1 (racemic) [Example 53, rac-N-(8-chloro-2-methylimidazo-[1,2-a]pyridin-6-yl)-5-fluoro-6-(3-methylpiperazin-1-yl)nicotinamide hydrochloride] | 0.21 | 0.7455 | 1.6563
9 | Cc1cn2cc(NC(=O)c3ccc(N4CCNC(C)C4)cc3F)cc(Cl)c2n1 (racemic) [Example 54, rac-N-(8-chloro-2-methylimidazo-[1,2-a]pyridin-6-yl)-2-fluoro-4-(3-methylpiperazin-1-yl)benzamide dihydrochloride] | 0.0128 | 0.056 | 1.8217
10 | Cc1cn2cc(NC(=O)c3ccc(N4CCNC(C)C4)nc3)cc(Cl)c2n1 (racemic) [Example 55, rac-N-(8-chloro-2-methylimidazo[1,2-a]pyridin-6-yl)-6-(3-methylpiperazin-1-yl)nicotinamide dihydrochloride] | 0.141 | 0.7112 | 1.8752
11 | Cc1cn2cc(NC(=O)c3ncc(N4CCNC(C)C4)cc3F)cc(Cl)c2n1 (racemic) [Example 56, rac-N-(8-chloro-2-methylimidazo[1,2-a]pyridin-6-yl)-3-fluoro-5-(3-methyl-piperazin-1-yl)-picolinamide dihydrochloride] | 0.017 | 0.07 | 1.7299
12 | Cc1cn2cc(NC(=O)c3c(F)cc(N4CCNC(C)C4)cc3F)cc(Cl)c2n1 (racemic) [Example 57, rac-N-(8-chloro-2-methylimidazo[1,2-a]pyridin-6-yl)-2,6-difluoro-4-(3-methylpiperazin-1-yl)benzamide trihydrochloride] | 0.0262 | 1.7363 | 1.578
13 | COc1nc(N2CCNC(C)C2)ccc1C(=O)Nc1cc(F)c2nc(C)cn2c1 (racemic) [Example 74, rac-N-(8-fluoro-2-methylimidazo[1,2-a]pyridin-6-yl)-2-methoxy-6-(3-methylpiperazin-1-yl)nicotinamide] | 0.0161 | 0.1524 | 1.709
